Laboratory results taken from ChEMBL document CHEMBL1201862, “PubChem BioAssay data set” (2004).
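Cultured in 96-well plates, cells were exposed to test compound for 48 hours across five concentrations. Abbreviation: GI50, concentration required for 50% inhibition of growth.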 Activity calls are given as the source filed them. Rule as the data show it: active = GI50 up to about 1.1 µM and inactive = higher.

Key:
Experiment in all cases: NCI anticancer screen, dose series, 48 h
UACC-257 = tested on: UACC-257
SK-MEL-2 = tested on: SK-MEL-2
TK-10 = tested on: TK-10
SK-OV-3 = tested on: SK-OV-3
OVCAR-8 = tested on: OVCAR-8
OVCAR-4 = tested on: OVCAR-4
CCRF-CEM = tested on: CCRF-CEM
COLO 205 = tested on: COLO 205
HCC 2998 = tested on: HCC 2998
A549 = tested on: A549
RPMI-8226 = tested on: RPMI-8226
Malme-3M = tested on: Malme-3M
IGROV-1 = tested on: IGROV-1
SF-295 = tested on: SF-295
UO-31 = tested on: UO-31
HL-60 = tested on: HL-60

Measured: GI50

c1ccc2c(c1)CCCc1cc3ccccc3nc1-2
inactive: UACC-257 54.8 µM | SK-MEL-2 > 100 µM | TK-10 > 100 µM | SK-OV-3 38.7 µM | OVCAR-8 > 100 µM | OVCAR-4 68.1 µM | CCRF-CEM 94.6 µM | COLO 205 29.9 µM | HCC 2998 > 100 µM | A549 > 100 µM | RPMI-8226 31 µM | Malme-3M > 100 µM | IGROV-1 > 100 µM | SF-295 > 100 µM | UO-31 > 100 µM

O=CC1CCC=CC1NC(=O)OCc1ccccc1 (centres undefined)
inactive: UACC-257 > 100 µM | SK-MEL-2 38.5 µM | TK-10 53.3 µM | SK-OV-3 > 100 µM | OVCAR-8 22.7 µM | OVCAR-4 94.6 µM | HL-60 7.14 µM | CCRF-CEM 25.9 µM | COLO 205 > 100 µM | A549 > 100 µM | RPMI-8226 40.5 µM | IGROV-1 > 100 µM | SF-295 30.5 µM | UO-31 > 100 µM

NC(CCCNCc1ccccc1O)C(=O)O (centres undefined)
inactive: UACC-257 > 100 µM | SK-MEL-2 > 100 µM | TK-10 > 100 µM | SK-OV-3 > 100 µM | OVCAR-8 > 100 µM | OVCAR-4 > 100 µM | HL-60 > 100 µM | CCRF-CEM > 100 µM | COLO 205 > 100 µM | A549 > 100 µM | RPMI-8226 > 100 µM | Malme-3M > 100 µM | IGROV-1 > 100 µM | SF-295 > 100 µM | UO-31 > 100 µM

C=CC(=O)Nc1ccccc1CC(c1c[nH]c2ccccc12)c1c[nH]c2ccccc12
inactive: UACC-257 18.9 µM | SK-MEL-2 17.7 µM | TK-10 26.7 µM | SK-OV-3 19.8 µM | OVCAR-8 16.4 µM | CCRF-CEM 19.9 µM | COLO 205 16.7 µM | HCC 2998 18.7 µM | A549 23.4 µM | RPMI-8226 17.5 µM | Malme-3M 18 µM | IGROV-1 18.2 µM | SF-295 22.1 µM | UO-31 15.9 µM

O=C1NC2(CCCCCC2)C2CCCCCCC12O (centres undefined)
inactive: UACC-257 > 100 µM | SK-MEL-2 > 100 µM | TK-10 > 100 µM | SK-OV-3 > 100 µM | OVCAR-8 > 100 µM | OVCAR-4 > 100 µM | HL-60 > 100 µM | CCRF-CEM > 100 µM | COLO 205 > 100 µM | A549 > 100 µM | Malme-3M > 100 µM | IGROV-1 > 100 µM | SF-295 > 100 µM | UO-31 > 100 µM

Cc1ccc(-c2cc(=O)c3cc(C)c(C)c(C(=O)O)c3o2)cc1N
inactive: UACC-257 > 100 µM | SK-MEL-2 > 100 µM | TK-10 > 100 µM | SK-OV-3 > 100 µM | OVCAR-8 > 100 µM | OVCAR-4 > 100 µM | CCRF-CEM > 100 µM | COLO 205 > 100 µM | A549 > 100 µM | RPMI-8226 > 100 µM | Malme-3M > 100 µM | IGROV-1 > 100 µM | SF-295 > 100 µM | UO-31 > 100 µM

Cc1cc2c(=O)c3ccccc3[nH]c2c(C(=O)O)c1C
inactive: UACC-257 > 100 µM | SK-MEL-2 > 100 µM | OVCAR-8 > 100 µM | OVCAR-4 > 100 µM | HL-60 70.8 µM | CCRF-CEM > 100 µM | COLO 205 > 100 µM | HCC 2998 > 100 µM | A549 > 100 µM | RPMI-8226 > 100 µM | IGROV-1 > 100 µM | SF-295 > 100 µM | UO-31 43.9 µM

C=CCC1=C(C)C[C@@H]2CCC(=O)C=C12
inactive: UACC-257 > 100 µM | SK-MEL-2 > 100 µM | TK-10 > 100 µM | SK-OV-3 > 100 µM | OVCAR-8 > 100 µM | OVCAR-4 > 100 µM | HL-60 > 100 µM | CCRF-CEM > 100 µM | COLO 205 > 100 µM | A549 > 100 µM | RPMI-8226 > 100 µM | Malme-3M > 100 µM | IGROV-1 > 100 µM | SF-295 > 100 µM | UO-31 > 100 µM
